What is called IC50 is the concentration needed to halve the response being measured.

In the assay the target is T1, recombinant human 11 β-HSD1 (Homo sapiens, UniProt P28845).
T1 construct: made in house; host or cells: E. coli
T1 sequence (P28845 whole entry): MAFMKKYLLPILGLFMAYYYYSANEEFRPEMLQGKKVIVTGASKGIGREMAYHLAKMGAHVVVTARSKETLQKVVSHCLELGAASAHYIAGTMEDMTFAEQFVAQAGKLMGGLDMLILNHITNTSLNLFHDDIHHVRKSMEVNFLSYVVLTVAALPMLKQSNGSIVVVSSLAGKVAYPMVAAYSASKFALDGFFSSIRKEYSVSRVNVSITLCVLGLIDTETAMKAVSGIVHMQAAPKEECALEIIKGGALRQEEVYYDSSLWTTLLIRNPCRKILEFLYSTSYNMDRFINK
The assay is described as follows: 11 β-HSD1 SPA Assay (Scintillation Proximity Assay). The format is biochemical. The method in brief:
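E. coli-expressed human enzyme (30-100 nM) with tritiated cortisone 40 nM and NADPH 1 mM in HEPES buffer pH7.4, 2 hours at room temperature. Stopped with protein A SPA beads carrying anti-cortisol antibody and glycyrrhetinic acid; counted after overnight incubation. IC50 from percent inhibition between no-enzyme and no-compound signals.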
Take `O=C(NCC(F)(F)F)c1ccc(N2[C@@H]3CC[C@H]2C[C@@H](NC(=O)C2(c4cccc(Cl)c4)CC2)C3)nc1` [Example 122, 6-[3-endo-({[1-(3-chlorophenyl)cyclopropyl]carbonyl}amino)-8-azabicyclo[3.2.1]oct-8-yl]-N-(2,2,2-trifluoroethyl)pyridine-3-carboxamide]: the IC50 was less than 200 nM.

On to `O=C(NCC(F)(F)F)c1ccc(N2[C@@H]3CC[C@H]2C[C@@H](NC(=O)C2(c4cccc(F)c4)CC2)C3)nc1` [Example 123, 6-[3-endo-({[1-(3-fluorophenyl)cyclopropyl]carbonyl}amino)-8-azabicyclo[3.2.1]oct-8-yl]-N-(2,2,2-trifluoroethyl)pyridine-3-carboxamide], for which the IC50 is less than 200 nM.

With `CC(C)(Oc1ncc(Cl)cc1Cl)C(=O)N[C@H]1C[C@H]2CC[C@@H](C1)N2c1ccc(C(N)=O)cn1` [Example 124, 6-[3-endo-({2-[(3,5-dichloropyridin-2-yl)oxy]-2-methylpropanoyl}amino)-8-azabicyclo[3.2.1]oct-8-yl]pyridine-3-carboxamide], the IC50 was less than 200 nM.

For `CC(C)(Oc1ccc(Cl)cc1Cl)C(=O)N[C@H]1C[C@H]2CC[C@@H](C1)N2c1ccc(S(N)(=O)=O)cn1` [Example 125, N-{8-[5-(aminosulfonyl)pyridin-2-yl]-8-azabicyclo[3.2.1]oct-3-endo-yl}-2-[(2,4-dichlorophenyl)oxy]-2-methylpropanamide], the IC50 is less than 200 nM.

On to `CC(C)(Oc1ccc(Cl)cc1Cl)C(=O)N[C@H]1C[C@H]2CC[C@@H](C1)N2c1ccc(C(=O)NCC(F)(F)C(F)(F)F)cn1` [Example 126, 6-[3-endo-({2-[(2,4-dichlorophenyl)oxy]-2-methylpropanoyl}amino)-8-azabicyclo[3.2.1]oct-8-yl]-N-(2,2,3,3,3-pentafluoropropyl)pyridine-3-carboxamide], for which the IC50 was less than 200 nM.

As for `CC(C)(Oc1ncc(Cl)cc1F)C(=O)N[C@H]1C[C@H]2CC[C@@H](C1)N2c1ccc(C(=O)NCC(F)(F)F)cn1` [Example 127, 6-[3-endo-({2-[(5-chloro-3-fluoropyridin-2-yl)oxy]-2-methylpropanoyl}amino)-8-azabicyclo[3.2.1]oct-8-yl]-N-(2,2,2-trifluoroethyl)pyridine-3-carboxamide], the IC50 is less than 200 nM.

As to `CC(C)(Oc1ccc(OC(F)(F)F)cc1)C(=O)N[C@H]1C[C@H]2CC[C@@H](C1)N2c1ccc(C(=O)NCC(F)(F)F)cn1` [Example 128, 6-(3-endo-{[2-methyl-2-({4-[(trifluoromethyl)oxy]phenyl}oxy)propanoyl]amino}-8-azabicyclo[3.2.1]oct-8-yl)-N-(2,2,2-trifluoroethyl)pyridine-3-carboxamide], the IC50 is less than 200 nM.

Turning to `CC(C)(Oc1ccc(Cl)cc1Cl)C(=O)N[C@H]1C[C@H]2CC[C@@H](C1)N2c1ccc(C(=O)NCC(F)(F)F)cc1F` [Example 129, 4-[3-endo-({2-[(2,4-dichlorophenyl)oxy]-2-methylpropanoyl}amino)-8-azabicyclo[3.2.1]oct-8-yl]-3-fluoro-N-(2,2,2-trifluoroethyl)benzamide], the IC50 is less than 200 nM.

On to `CC(C)(Oc1ccc(Cl)cc1Cl)C(=O)N[C@H]1C[C@H]2CC[C@@H](C1)N2c1ccc(C(=O)NC2CC2)c(F)c1` [Example 130, N-cyclopropyl-4-[3-endo-({2-[(2,4-dichlorophenyl)oxy]-2-methylpropanoyl}amino)-8-azabicyclo[3.2.1]oct-8-yl]-2-fluorobenzamide], for which the IC50 was less than 200 nM.

As for `CC(C)(Oc1ccc(Cl)cc1Cl)C(=O)N[C@H]1C[C@H]2CC[C@@H](C1)N2c1ncc(C(=O)NCC(F)(F)F)cc1Cl` [Example 131, 5-chloro-6-[3-endo-({2-[(2,4-dichlorophenyl)oxy]-2-methylpropanoyl}amino)-8-azabicyclo[3.2.1]oct-8-yl]-N-(2,2,2-trifluoroethyl)pyridine-3-carboxamide], the IC50 is less than 200 nM.

`CC(C)(Oc1ccc(Cl)cc1Cl)C(=O)N[C@H]1C[C@H]2CC[C@@H](C1)N2c1ccc(C(=O)NC2CC2)cc1` [Example 132, N-cyclopropyl-4-[3-endo-({2-[(2,4-dichlorophenyl)oxy]-2-methylpropanoyl}amino)-8-azabicyclo[3.2.1]oct-8-yl]benzamide]: the concentration for half-maximal inhibition (IC50) is less than 200 nM.

Take `CC(C)(Oc1ccc(Cl)cc1Cl)C(=O)N[C@H]1C[C@H]2CC[C@@H](C1)N2c1ccc(NC(=O)CC(F)(F)F)cc1` [Example 133, N-{4-[3-endo-({2-[(2,4-dichlorophenyl)oxy]-2-methylpropanoyl}amino)-8-azabicyclo[3.2.1]oct-8-yl]phenyl}-3,3,3-trifluoropropanamide]: the IC50 is less than 200 nM.

`CC(C)(Oc1ccc(Cl)cc1Cl)C(=O)N[C@H]1C[C@H]2CC[C@@H](C1)N2c1ccc(NC(=O)NCC(F)(F)F)cn1` [Example 134, 2-[(2,4-dichlorophenyl)oxy]-2-methyl-N-{8-[5-({[(2,2,2-trifluoroethyl)amino]carbonyl}amino)pyridin-2-yl]-8-azabicyclo[3.2.1]oct-3-endo-yl}propanamide]: the IC50 is less than 200 nM.

`CC(C)(Oc1ccc(Cl)cc1Cl)C(=O)N[C@H]1C[C@H]2CC[C@@H](C1)N2c1ccc(NC(=O)NCC(F)(F)F)cc1` [Example 135, 2-[(2,4-dichlorophenyl)oxy]-2-methyl-N-{8-[4-({[(2,2,2-trifluoroethyl)amino]carbonyl}amino)phenyl]-8-azabicyclo[3.2.1]oct-3-endo-yl}propanamide]: the IC50 was less than 200 nM.

In the case of `CC(C)(Oc1ccc(Cl)cc1Cl)C(=O)N[C@H]1C[C@H]2CC[C@@H](C1)N2c1ccc(NC(=O)NCC(F)(F)F)cc1Cl` [Example 136, N-{8-[2-chloro-4-({[(2,2,2-trifluoroethyl)amino]carbonyl}amino)phenyl]-8-azabicyclo[3.2.1]oct-3-endo-yl}-2-[(2,4-dichlorophenyl)oxy]-2-methylpropanamide], the IC50 was less than 2000 nM.

For `CC(C)(Oc1ccc(Cl)cc1Cl)C(=O)N[C@H]1C[C@H]2CC[C@@H](C1)N2c1ccc(NC(=O)NCC(F)(F)F)cc1F` [Example 137, 2-[(2,4-dichlorophenyl)oxy]-N-{8-[2-fluoro-4-({[(2,2,2-trifluoroethyl)amino]carbonyl}amino)phenyl]-8-azabicyclo[3.2.1]oct-3-endo-yl}-2-methylpropanamide], the IC50 is less than 200 nM.

`CC(C)(Oc1ccc(Cl)cc1Cl)C(=O)N[C@H]1C[C@H]2CC[C@@H](C1)N2c1ccc(NC(=O)CC(F)(F)F)cc1Cl` [Example 138, N-{3-chloro-4-[3-endo-({2-[(2,4-dichlorophenyl)oxy]-2-methylpropanoyl}amino)-8-azabicyclo[3.2.1]oct-8-yl]phenyl}-3,3,3-trifluoropropanamide]: the IC50 was less than 2000 nM.

Consider `CC(C)(Oc1ccc(Cl)cc1Cl)C(=O)N[C@H]1C[C@H]2CC[C@@H](C1)N2c1ccc(NC(=O)CC(F)(F)F)cc1F` [Example 139, N-{4-[3-endo-({2-[(2,4-dichlorophenyl)oxy]-2-methylpropanoyl}amino)-8-azabicyclo[3.2.1]oct-8-yl]-3-fluorophenyl}-3,3,3-trifluoropropanamide], for which the IC50 was less than 200 nM.

Regarding `CC(C)(Oc1ccc(Cl)cc1Cl)C(=O)N[C@H]1C[C@H]2CC[C@@H](C1)N2c1ccc(S(C)(=O)=O)cn1` [Example 140, 2-[(2,4-dichlorophenyl)oxy]-2-methyl-N-{8-[5-(methylsulfonyl)pyridin-2-yl]-8-azabicyclo[3.2.1]oct-3-endo-yl}propanamide], the IC50 was less than 200 nM.

As to `NC(=O)c1ccc(N2[C@@H]3CC[C@H]2C[C@@H](NC(=O)C2(c4ccc(F)c(F)c4)CC2)C3)nc1` [Example 141, 6-[3-endo-({[1-(3,4-difluorophenyl)cyclopropyl]carbonyl}amino)-8-azabicyclo[3.2.1]oct-8-yl]pyridine-3-carboxamide], the IC50 was less than 200 nM.

For the molecule `CC(C)(Oc1ncc(Cl)cc1F)C(=O)N[C@H]1C[C@H]2CC[C@@H](C1)N2c1ccc(C(N)=O)cn1` [Example 142, 6-[3-endo-({2-[(5-chloro-3-fluoropyridin-2-yl)oxy]-2-methylpropanoyl}amino)-8-azabicyclo[3.2.1]oct-8-yl]pyridine-3-carboxamide], the IC50 was less than 200 nM.

As for `CC(C)(Oc1ccc(Cl)cc1Cl)C(=O)N[C@H]1C[C@H]2CC[C@@H](C1)N2c1cc(C(=O)NC2CC2)ccn1` [Example 143, N-cyclopropyl-2-[3-endo-({2-[(2,4-dichlorophenyl)oxy]-2-methylpropanoyl}amino)-8-azabicyclo[3.2.1]oct-8-yl]pyridine-4-carboxamide], the IC50 was less than 2000 nM.

For `CC(C)(Oc1ccc(Cl)cc1C(F)(F)F)C(=O)N[C@H]1C[C@H]2CC[C@@H](C1)N2c1ccc(C(=O)NCC(F)(F)F)cn1` [Example 144, 6-{3-endo-[(2-{[4-chloro-2-(trifluoromethyl)phenyl]oxy}-2-methylpropanoyl)amino]-8-azabicyclo[3.2.1]oct-8-yl}-N-(2,2,2-trifluoroethyl)pyridine-3-carboxamide], the IC50 is less than 200 nM.

In the case of `CC(C)(Oc1ccc(F)cc1C(F)(F)F)C(=O)N[C@H]1C[C@H]2CC[C@@H](C1)N2c1ccc(C(=O)NCC(F)(F)F)cn1` [Example 145, 6-{3-endo-[(2-{[4-fluoro-2-(trifluoromethyl)phenyl]oxy}-2-methylpropanoyl)amino]-8-azabicyclo[3.2.1]oct-8-yl}-N-(2,2,2-trifluoroethyl)pyridine-3-carboxamide], the IC50 is less than 200 nM.

Turning to `CC(C)(Oc1ccc(Cl)cc1Cl)C(=O)N[C@H]1C[C@H]2CC[C@@H](C1)N2c1ccc(NC(=O)C(F)(F)F)cn1` [Example 146, 2-[(2,4-dichlorophenyl)oxy]-2-methyl-N-(8-{5-[(trifluoroacetyl)amino]pyridin-2-yl}-8-azabicyclo[3.2.1]oct-3-endo-yl)propanamide], the IC50 is less than 200 nM.

Consider `CC(C)(Oc1ccc(Cl)cc1Cl)C(=O)N[C@H]1C[C@H]2CC[C@@H](C1)N2c1ccc(NC(=O)CC(F)(F)F)cn1` [Example 147, N-{6-[3-endo-({2-[(2,4-dichlorophenyl)oxy]-2-methylpropanoyl}amino)-8-azabicyclo[3.2.1]oct-8-yl]pyridin-3-yl}-3,3,3-trifluoropropanamide], for which the IC50 is less than 200 nM.

These data come from patent publication US8163771B2, “11 β-HSD1 modulators” (Exelixis, Inc., priority 2008, dated 2012).
